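Values below derive from 48-hour exposures of cells grown in 96-well plates, with endpoints linearly interpolated between the two concentrations bracketing the appropriate inhibition level. GI50 marks 50% less growth. TGI marks complete inhibition of growth.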
Tests used:
Assay in all cases: NCI anticancer screen, dose series, 48 h
COLO 205 colon = system: COLO 205 colon
EKVX NSCLC = system: EKVX NSCLC
U251 CNS = system: U251 CNS
OVCAR-5 ovarian = system: OVCAR-5 ovarian
SN12C renal = system: SN12C renal
LOX IMVI melanoma = system: LOX IMVI melanoma
SK-MEL-5 melanoma = system: SK-MEL-5 melanoma
SR leukemia = system: SR leukemia
RPMI-8226 leukemia = system: RPMI-8226 leukemia
HT29 colon = system: HT29 colon
HCT-116 colon = system: HCT-116 colon
HOP-92 NSCLC = system: HOP-92 NSCLC
SK-OV-3 ovarian = system: SK-OV-3 ovarian
HOP-62 NSCLC = system: HOP-62 NSCLC
NCI-H226 lung = system: NCI-H226 lung
DU-145 prostate = system: DU-145 prostate
TK-10 renal = system: TK-10 renal
IGROV1 ovarian = system: IGROV1 ovarian
SK-MEL-28 melanoma = system: SK-MEL-28 melanoma
HCC-2998 colon = system: HCC-2998 colon
UACC-257 melanoma = system: UACC-257 melanoma
SF-539 CNS = system: SF-539 CNS
SNB-19 CNS = system: SNB-19 CNS
UACC-62 melanoma = system: UACC-62 melanoma
BT-549 breast = system: BT-549 breast
SF-268 CNS = system: SF-268 CNS
M14 melanoma = system: M14 melanoma
MCF7 breast = system: MCF7 breast
RXF 393 renal = system: RXF 393 renal
NCI/ADR-RES ovarian = system: NCI/ADR-RES ovarian
A498 renal = system: A498 renal
MDA-MB-231 breast = system: MDA-MB-231 breast
786-0 renal = system: 786-0 renal
UO-31 renal = system: UO-31 renal
PC-3 prostate = system: PC-3 prostate
OVCAR-3 ovarian = system: OVCAR-3 ovarian
NCI-H460 lung = system: NCI-H460 lung
KM12 colon = system: KM12 colon
CCRF-CEM leukemia = system: CCRF-CEM leukemia
MDA-MB-435 = system: MDA-MB-435
K-562 leukemia = system: K-562 leukemia
SF-295 CNS = system: SF-295 CNS
ACHN renal = system: ACHN renal
T-47D breast = system: T-47D breast
SNB-75 CNS = system: SNB-75 CNS
HL-60(TB) leukemia = system: HL-60(TB) leukemia
SW-620 colon = system: SW-620 colon
SK-MEL-2 melanoma = system: SK-MEL-2 melanoma
MALME-3M melanoma = system: MALME-3M melanoma
HCT-15 colon = system: HCT-15 colon
NCI-H522 lung = system: NCI-H522 lung
A549 NSCLC = system: A549 NSCLC
OVCAR-4 ovarian = system: OVCAR-4 ovarian
NCI-H23 lung = system: NCI-H23 lung
OVCAR-8 ovarian = system: OVCAR-8 ovarian
CAKI-1 renal = system: CAKI-1 renal
MOLT-4 leukemia = system: MOLT-4 leukemia
HS 578T breast = system: HS 578T breast

SMILES: COC(=O)[C@]12CC[C@@H](C)[C@H](C)[C@@H]1C1=CC[C@@H]3[C@@]4(C)CC(=O)[C@H](O)[C@@](C)(CO)[C@@H]4C(=O)C[C@@]3(C)[C@]1(C)CC2
- GI50 (COLO 205 colon): 14.3 µM
- TGI (COLO 205 colon): 29.5 µM
- GI50 (EKVX NSCLC): 14.8 µM
- TGI (EKVX NSCLC): 29.2 µM
- GI50 (U251 CNS): 11.7 µM
- TGI (U251 CNS): 25.1 µM
- GI50 (OVCAR-5 ovarian): 20.8 µM
- TGI (OVCAR-5 ovarian): 37.6 µM
- GI50 (SN12C renal): 12.4 µM
- TGI (SN12C renal): 27.3 µM
- GI50 (LOX IMVI melanoma): 12.2 µM
- TGI (LOX IMVI melanoma): 25.8 µM
- GI50 (SK-MEL-5 melanoma): 11.6 µM
- TGI (SK-MEL-5 melanoma): 23.9 µM
- GI50 (SR leukemia): 5.95 µM
- TGI (SR leukemia): 27.1 µM
- GI50 (RPMI-8226 leukemia): 0.53 µM
- TGI (RPMI-8226 leukemia): 19.4 µM
- GI50 (HT29 colon): 14.5 µM
- TGI (HT29 colon): 30.4 µM
- GI50 (HCT-116 colon): 10.9 µM
- TGI (HCT-116 colon): 23.3 µM
- GI50 (HOP-92 NSCLC): 15.3 µM
- TGI (HOP-92 NSCLC): 30.1 µM
- GI50 (SK-OV-3 ovarian): 16.6 µM
- TGI (SK-OV-3 ovarian): 30.5 µM
- GI50 (HOP-62 NSCLC): 13.3 µM
- TGI (HOP-62 NSCLC): 27.4 µM
- GI50 (NCI-H226 lung): 11.9 µM
- TGI (NCI-H226 lung): 35.3 µM
- GI50 (DU-145 prostate): 11.2 µM
- TGI (DU-145 prostate): 23.6 µM
- GI50 (TK-10 renal): 19.7 µM
- TGI (TK-10 renal): 34 µM
- GI50 (IGROV1 ovarian): 12.7 µM
- TGI (IGROV1 ovarian): 28.1 µM
- GI50 (SK-MEL-28 melanoma): 14.6 µM
- TGI (SK-MEL-28 melanoma): 31.9 µM
- GI50 (HCC-2998 colon): 16.9 µM
- TGI (HCC-2998 colon): 33.9 µM
- GI50 (UACC-257 melanoma): 16.8 µM
- TGI (UACC-257 melanoma): 31.7 µM
- GI50 (SF-539 CNS): 16.2 µM
- TGI (SF-539 CNS): 31.6 µM
- GI50 (SNB-19 CNS): 12.9 µM
- TGI (SNB-19 CNS): 27.8 µM
- GI50 (UACC-62 melanoma): 3.25 µM
- TGI (UACC-62 melanoma): 20.8 µM
- GI50 (BT-549 breast): 11.3 µM
- TGI (BT-549 breast): 23.5 µM
- GI50 (SF-268 CNS): 12.6 µM
- TGI (SF-268 CNS): 26.5 µM
- GI50 (M14 melanoma): 11.9 µM
- TGI (M14 melanoma): 25.1 µM
- GI50 (MCF7 breast): 12.1 µM
- TGI (MCF7 breast): 27.5 µM
- GI50 (RXF 393 renal): 13.8 µM
- TGI (RXF 393 renal): 28.6 µM
- GI50 (NCI/ADR-RES ovarian): 12.1 µM
- TGI (NCI/ADR-RES ovarian): 32.4 µM
- GI50 (A498 renal): 19.4 µM
- TGI (A498 renal): 33.9 µM
- GI50 (MDA-MB-231 breast): 13.6 µM
- TGI (MDA-MB-231 breast): 29.2 µM
- GI50 (786-0 renal): 12.4 µM
- TGI (786-0 renal): 25.4 µM
- GI50 (UO-31 renal): 5.7 µM
- TGI (UO-31 renal): 23.4 µM
- GI50 (PC-3 prostate): 0.931 µM
- TGI (PC-3 prostate): 15 µM
- GI50 (OVCAR-3 ovarian): 11.6 µM
- TGI (OVCAR-3 ovarian): 24.8 µM
- GI50 (NCI-H460 lung): 6.66 µM
- TGI (NCI-H460 lung): 22.6 µM
- GI50 (KM12 colon): 10.8 µM
- TGI (KM12 colon): 23.6 µM
- GI50 (CCRF-CEM leukemia): 3.38 µM
- TGI (CCRF-CEM leukemia): 28.7 µM
- GI50 (MDA-MB-435): 12.6 µM
- TGI (MDA-MB-435): 25.1 µM
- GI50 (K-562 leukemia): 11.2 µM
- TGI (K-562 leukemia): 40.7 µM
- GI50 (SF-295 CNS): 10.6 µM
- TGI (SF-295 CNS): 23.3 µM
- GI50 (ACHN renal): 12.9 µM
- TGI (ACHN renal): 28.3 µM
- GI50 (T-47D breast): 2.44 µM
- TGI (T-47D breast): 26.4 µM
- GI50 (SNB-75 CNS): 12.7 µM
- TGI (SNB-75 CNS): 27.1 µM
- GI50 (HL-60(TB) leukemia): 9.21 µM
- TGI (HL-60(TB) leukemia): 28.4 µM
- GI50 (SW-620 colon): 15.1 µM
- TGI (SW-620 colon): 30.6 µM
- GI50 (SK-MEL-2 melanoma): 14.5 µM
- TGI (SK-MEL-2 melanoma): 29.4 µM
- GI50 (MALME-3M melanoma): 4.52 µM
- TGI (MALME-3M melanoma): 22 µM
- GI50 (HCT-15 colon): 9.37 µM
- TGI (HCT-15 colon): 23.3 µM
- GI50 (NCI-H522 lung): 4.27 µM
- TGI (NCI-H522 lung): 22.1 µM
- GI50 (A549 NSCLC): 15.8 µM
- TGI (A549 NSCLC): 32.9 µM
- GI50 (OVCAR-4 ovarian): 11 µM
- TGI (OVCAR-4 ovarian): 25.1 µM
- GI50 (NCI-H23 lung): 13.9 µM
- TGI (NCI-H23 lung): 31.1 µM
- GI50 (OVCAR-8 ovarian): 4.89 µM
- TGI (OVCAR-8 ovarian): 22.6 µM
- GI50 (CAKI-1 renal): 11.5 µM
- TGI (CAKI-1 renal): 24 µM
- GI50 (MOLT-4 leukemia): 10.3 µM
- TGI (MOLT-4 leukemia): 27.1 µM
- GI50 (HS 578T breast): 7.98 µM
- TGI (HS 578T breast): 30.4 µM
